Assay: Effects of ingested theacrine versus fused theacrine as reported by human subjects
Format: in vivo
Conditions: oral ingestion
Description: Typically, theacrine's effects in human subjects start after 30 minutes of ingestion and last 6-8 hours.

## Cn1c(=O)c2c(n(C)c1=O)n(C)c(=O)n2C [theacrine, 1,3,7,9-tetramethyluric acid]
  start of theacrine's effects after ingestion: 30 min
Same amount of theacrine in both forms
  duration of theacrine's effects: 6 to 8 h
subject-reported
  "crash" felt when the theacrine level falls: feels a “crash.”

Source: patent US20180118747A1, “METHOD OF ISOLATING THEACRINE AND COMPOSITION COMPRISING THEACRINE” (ThermoLife International, LLC, priority 2017, published 2018)
